Key:
Format in all cases: cell-based
[1] = system: Ba/F3 FLT3-ITD^D835Y cells; test: Cytotoxicity assay (CellTiter-Glo), Ba/F3 FLT3-ITD D835Y; settings: ratio of Ba/F3 parental IC50 to Ba/F3 FLT3-ITD^D835Y IC50
Experimental: (§1) Inhibitory effects of example compounds on the activity of Ba/F3 parental generation, Ba/F3 KIF5B-RET, Ba/F3 KIF5B-RET^V804M, Ba/F3 KIF5B-RET^V804L, Ba/F3 KIF5B-RET^G810R, Ba/F3 FLT3-ITD, Ba/F3 FLT3-ITD^D835Y, Ba/F3 FLT3-ITD^F691L cells were determined.
(§2) Materials and reagents: fetal bovine serum FBS (GIBCO, Cat #10099141), CellTiter-Glo® Luminescent Cell Viability Assay kit (Promega, Cat #G7572), 96-well black-wall clear flat-bottom plate (Corning®, Cat #3603).
(§3) 1. Cells in the logarithmic growth phase were harvested and counted with a […]. Cell viability was detected by a trypan blue exclusion method, ensuring that cell viability was 90% or more; 2. Cell concentration was adjusted to about 3000 cells/well; 90 μl of cell suspension was added to each well of the 96-well plate; 3. The cells in the 96-well plate were incubated overnight under the condition of 37° C., 5% CO2, and 95% humidity.
(§4) 1. A series of compound solutions were formulated by 3.16-fold serial dilution starting from a concentration of 10 μM, resulting in 9 concentrations. 10 μL of the compound solutions were added in each well of the 96-well plate seeded with cells in triplicate for each compound concentration; 2. The cells in the 96-well plate added with compounds were further incubated under the condition of 37° C., 5% CO2, and 95% humidity for 72 hrs, and then CTG analysis was carried out.
(§5) 1. CTG reagent was thawed, and the cell plate was equilibrated at room temperature for 30 minutes; 2. An equal volume […] of CTG solution was added to each well; 3. The cell plate was shaken on an orbital shaker for 5 minutes to lyse the cells; 4. The cell plate was placed at RT for 20 minutes to stabilize the luminescence signal; 5. Luminescence value was read.
(§6) Data were Analyzed by GraphPad Prism 5.0 Software, and Fitted by Nonlinear S-Curve Regression to obtain a dose-response curve, from which IC50 values were calculated.
(§7) Cell survival rate (%)=(luminescence value of drug to be tested−luminescence value of culture medium control)/(luminescence value of cell control−luminescence value of culture medium control)×100%.

[2] = biological target: T1, Ba/F3 FLT3-ITD^D835Y cells (Homo sapiens, UniProt P36888, D835Y, cells depend on it, form not given); test: as above; settings: CellTiter-Glo, 72 hrs; read-out: Ba/F3 FLT3-ITD^D835Y IC50
T1 construct: Ba/F3 FLT3-ITD^D835Y IC50 (nM); other: CellTiter-Glo, 72 hrs
T1 sequence (P36888 1-993 D835Y): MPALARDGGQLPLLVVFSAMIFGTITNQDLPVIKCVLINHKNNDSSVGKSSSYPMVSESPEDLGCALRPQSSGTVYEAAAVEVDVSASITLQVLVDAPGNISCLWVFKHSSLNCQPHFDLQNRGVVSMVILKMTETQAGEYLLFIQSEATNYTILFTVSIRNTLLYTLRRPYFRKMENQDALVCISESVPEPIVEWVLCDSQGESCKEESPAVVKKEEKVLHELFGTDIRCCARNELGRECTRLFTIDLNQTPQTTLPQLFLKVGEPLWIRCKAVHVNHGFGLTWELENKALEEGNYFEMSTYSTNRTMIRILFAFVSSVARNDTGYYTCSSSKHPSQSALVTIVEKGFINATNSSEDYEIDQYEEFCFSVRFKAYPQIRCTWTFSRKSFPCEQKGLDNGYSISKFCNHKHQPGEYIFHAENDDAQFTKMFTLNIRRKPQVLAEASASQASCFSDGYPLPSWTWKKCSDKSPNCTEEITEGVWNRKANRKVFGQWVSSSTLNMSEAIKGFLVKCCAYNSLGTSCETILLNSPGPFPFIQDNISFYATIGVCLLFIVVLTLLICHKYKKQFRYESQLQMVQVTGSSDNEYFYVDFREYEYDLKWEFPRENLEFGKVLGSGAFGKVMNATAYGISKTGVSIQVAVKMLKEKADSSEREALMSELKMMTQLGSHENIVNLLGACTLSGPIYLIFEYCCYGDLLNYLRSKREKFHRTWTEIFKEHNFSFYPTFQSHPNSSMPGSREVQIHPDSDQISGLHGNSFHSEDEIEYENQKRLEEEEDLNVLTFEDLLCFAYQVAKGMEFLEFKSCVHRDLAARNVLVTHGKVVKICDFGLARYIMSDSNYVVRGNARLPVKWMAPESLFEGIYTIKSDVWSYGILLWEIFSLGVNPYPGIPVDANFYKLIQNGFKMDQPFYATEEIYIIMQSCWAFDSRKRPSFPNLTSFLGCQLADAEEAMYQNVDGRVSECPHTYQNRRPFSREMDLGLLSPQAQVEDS
Experimental: as §1, §2, §3, §4, §5, §6, §7

[3] = system: Ba/F3 KIF5B-RET^G810R cells; test: Cytotoxicity assay (CellTiter-Glo), Ba/F3 KIF5B-RET G810R; settings: ratio of Ba/F3 parental IC50 to Ba/F3 KIF5B-RET^G810R IC50
Experimental: as §1, §2, §3, §4, §5, §6, §7

[4] = biological target: T2, Ba/F3 KIF5B-RET^G810R cells (Homo sapiens, UniProt P07949, G810R, cells depend on it); test: as above; settings: CellTiter-Glo, 72 hrs; read-out: Ba/F3 KIF5B-RET^G810R IC50
T2 construct: Ba/F3 KIF5B-RET^G810R IC50 (nM); other: CellTiter-Glo, 72 hrs; fused on or other part: P33176 (Kinesin-1 heavy chain)
Experimental: as §1, §2, §3, §4, §5, §6, §7

[5] = biological target: T3, Ba/F3 KIF5B-RET^V804L cells (Homo sapiens, UniProt P07949, V804L, cells depend on it); test: Cytotoxicity assay (CellTiter-Glo), Ba/F3 KIF5B-RET V804L; settings: CellTiter-Glo, 72 hrs; read-out: Ba/F3 KIF5B-RET^V804L IC50
T3 construct: Ba/F3 KIF5B-RET^V804L IC50 (nM); other: CellTiter-Glo, 72 hrs; fused on or other part: P33176 (Kinesin-1 heavy chain)
Experimental: as §1, §2, §3, §4, §5, §6, §7

[6] = biological target: T4, Ba/F3 KIF5B-RET^V804M cells (Homo sapiens, UniProt P07949, V804M, cells depend on it); test: Cytotoxicity assay (CellTiter-Glo), Ba/F3 KIF5B-RET V804M; settings: CellTiter-Glo, 72 hrs; read-out: Ba/F3 KIF5B-RET^V804M IC50
T4 construct: Ba/F3 KIF5B-RET^V804M IC50 (nM); other: CellTiter-Glo, 72 hrs; fused on or other part: P33176 (Kinesin-1 heavy chain)
Experimental: as §1, §2, §3, §4, §5, §6, §7

[7] = system: Ba/F3 KIF5B-RET^V804M cells; test: as above; settings: ratio of Ba/F3 parental IC50 to Ba/F3 KIF5B-RET^V804M IC50
Experimental: as §1, §2, §3, §4, §5, §6, §7

T2 sequence (P07949 whole entry G810R, the tested form may be a part): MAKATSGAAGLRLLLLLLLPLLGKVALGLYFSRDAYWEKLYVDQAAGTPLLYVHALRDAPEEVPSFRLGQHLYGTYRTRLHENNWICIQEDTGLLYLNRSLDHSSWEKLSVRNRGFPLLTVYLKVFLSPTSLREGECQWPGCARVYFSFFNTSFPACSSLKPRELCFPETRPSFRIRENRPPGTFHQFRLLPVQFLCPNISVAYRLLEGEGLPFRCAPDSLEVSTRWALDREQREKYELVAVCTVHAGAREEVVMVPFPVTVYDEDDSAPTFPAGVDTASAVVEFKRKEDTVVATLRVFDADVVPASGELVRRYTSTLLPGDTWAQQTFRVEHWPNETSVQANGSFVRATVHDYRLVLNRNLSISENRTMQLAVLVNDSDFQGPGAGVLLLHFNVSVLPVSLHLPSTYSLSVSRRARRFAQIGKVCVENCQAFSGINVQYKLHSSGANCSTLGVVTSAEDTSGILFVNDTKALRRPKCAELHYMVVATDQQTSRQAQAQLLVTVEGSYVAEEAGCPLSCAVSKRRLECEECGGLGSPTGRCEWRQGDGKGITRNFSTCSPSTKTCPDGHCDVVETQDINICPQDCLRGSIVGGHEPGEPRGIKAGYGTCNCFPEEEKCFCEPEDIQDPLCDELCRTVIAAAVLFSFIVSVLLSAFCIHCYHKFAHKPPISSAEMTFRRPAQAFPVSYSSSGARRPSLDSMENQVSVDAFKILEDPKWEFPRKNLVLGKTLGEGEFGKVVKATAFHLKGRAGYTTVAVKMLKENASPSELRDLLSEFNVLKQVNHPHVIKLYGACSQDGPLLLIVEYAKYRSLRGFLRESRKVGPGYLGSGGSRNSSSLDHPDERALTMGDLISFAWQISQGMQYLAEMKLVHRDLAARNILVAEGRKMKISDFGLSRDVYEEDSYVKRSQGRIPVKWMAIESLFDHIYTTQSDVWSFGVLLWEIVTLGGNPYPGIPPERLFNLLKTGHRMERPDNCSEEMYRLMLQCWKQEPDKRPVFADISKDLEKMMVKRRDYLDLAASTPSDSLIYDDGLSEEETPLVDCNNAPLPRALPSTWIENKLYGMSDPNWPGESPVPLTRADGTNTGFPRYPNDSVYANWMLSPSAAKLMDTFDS
T3 sequence (P07949 whole entry V804L, the tested form may be a part): as the sequence (P07949 whole entry G810R, the tested form may be a part) above, with V804L, R810G counted along it
T4 sequence (P07949 whole entry V804M, the tested form may be a part): as the sequence (P07949 whole entry G810R, the tested form may be a part) above, with V804M, R810G counted along it

| SMILES | Ba/F3 FLT3-ITD^D835Y Selectivity on parental generation [1] | GI50 [2] [nM] | Ba/F3 KIF5B-RET^G810R Selectivity on parental generation [3] | GI50 [4] [nM] | GI50 [5] [nM] | GI50 [6] [nM] | Ba/F3 KIF5B-RET^V804M Selectivity on parental generation [7] |
| --- | --- | --- | --- | --- | --- | --- | --- |
| CC(C)n1nc(-c2ccc(NC(=O)Nc3cc(C(F)(F)F)ccc3F)cc2)c2c(N)ncnc21 [AD80, reference compound] | 21.82 | 30.1 | 103.0 | 7.88 | 9.05 | 10.8 | 75.2 |
| CC(C)n1nc(-c2ccc(CC(=O)Nc3cc(C(C)(C)C(F)(F)F)on3)cc2)c2c(N)ncnc21 [Compound T-1, 2-(4-(4-amino-1-isopropyl-1H-pyrazolo[3,4-d]pyrimidin-3-yl)phenyl)-N-(5-(1,1,1-trifluoro-2-methylprop-2-yl)isoxazol-3-yl)acetamide] | 137.97 | 14.4 | 613.8 | 2.64 | 3.71 | 5.65 | 286.8 |
| CC(C)n1nc(-c2ccc(NC(=O)Nc3cc(C(C)(C)C(F)(F)F)on3)cc2)c2c(N)ncnc21 [Compound T-2, 1-(4-(4-amino-1-isopropyl-1H-pyrazolo[3,4-d]pyrimidin-3-yl)phenyl)-3-(5-(1,1,1-trifluoro-2-methylprop-2-yl)isoxazol-3-yl)urea] | 35.48 | 6.05 | 113.4 | 2.98 | 5.39 | 2.64 | 128.0 |
| CC(C)n1cc(-c2ccc(CC(=O)Nc3cc(C(C)(C)C(F)(F)F)on3)cc2)c2c(N)ncnc21 [Compound T-3, 2-(4-(4-amino-7-isopropyl-7H-pyrrolo[2,3-d]pyrimidin-5-yl)phenyl)-N-(5-(1,1,1-trifluoro-2-methylprop-2-yl)isoxazol-3-yl)acetamide] | 218.67 | 2.92 | 188.7 | 3.84 | 3.63 | 3.21 | 225.7 |
| CC(C)c1nc(-c2ccc(CC(=O)Nc3cc(C(C)(C)C(F)(F)F)on3)cc2)c2c(N)nccn12 [Compound T-4, 2-(4-(8-amino-3-isopropylimidazo[1,5-a]pyrazin-1-yl)phenyl)-N-(5-(1,1,1-trifluoro-2-methylprop-2-yl)isoxazol-3-yl)acetamide] | 32.03 | 23.1 | 27.5 | 25.5 | 31.6 | 9.53 | 73.6 |
| CC(C)c1cc(-c2ccc(CC(=O)Nc3cc(C(C)(C)C(F)(F)F)on3)cc2)c2c(N)ncnn12 [Compound T-5, 2-(4-(4-amino-7-isopropylpyrrolo[2,1-f][1,2,4]triazin-5-yl)phenyl)-N-(5-(1,1,1-trifluoro-2-methylprop-2-yl)isoxazol-3-yl)acetamide] | 133.6 | 35.8 | 351.7 | 13.6 | 19.7 | 12.9 | 370.8 |
| CC(C)n1nc(-c2ccc(CC(=O)Nc3cc(C(C)(C)C(F)(F)F)on3)c(F)c2)c2c(N)ncnc21 [Compound T-6, 2-(4-(4-amino-1-isopropyl-1H-pyrazolo[3,4-d]pyrimidin-3-yl)-2-fluorophenyl)-N-(5-(1,1,1-trifluoro-2-methylprop-2-yl)isoxazol-3-yl)acetamide] | 193.58 | 9.6 | 717.6 | 2.92 | 5.8 | 9.9 | 211.7 |
| CC(C)n1nc(-c2ccc(CC(=O)Nc3cc(C(C)(C)C(F)(F)F)on3)cn2)c2c(N)ncnc21 [Compound T-7, 2-(6-(4-amino-1-isopropyl-1H-pyrazolo[3,4-d]pyrimidin-3-yl)pyridin-3-yl)-N-(5-(1,1,1-trifluoro-2-methylprop-2-yl)isoxazol-3-yl)acetamide] | 32.63 | 5.57 | 47.4 | 6.92 | 55.7 | 3.42 | 95.9 |
| CC(C)n1nc(-c2ccc(CC(=O)Nc3cc(C(C)(C)C(F)(F)F)no3)cc2)c2c(N)ncnc21 [Compound T-8, 2-(4-(4-amino-1-isopropyl-1H-pyrazolo[3,4-d]pyrimidin-3-yl)phenyl)-N-(3-(1,1,1-trifluoro-2-methylprop-2-yl)isoxazol-5-yl)acetamide] | 500.9 | 7.34 | 1538.5 | 2.39 | 1.53 | 3.6 | 1021.4 |
| CC(C)n1nc(-c2ccc(CC(=O)Nc3cc(C(C)(C)C(F)(F)F)no3)cn2)c2c(N)ncnc21 [Compound T-9, 2-(6-(4-amino-1-isopropyl-1H-pyrazolo[3,4-d]pyrimidin-3-yl)pyridin-3-yl)-N-(3-(1,1,1-trifluoro-2-methylprop-2-yl)isoxazol-5-yl)acetamide] | 87.8 | 46.9 | 86.3 | 47.7 | 49.3 | 29.9 | 137.7 |
